Measured values published in patent US3991202A, “Imidazolium salts” (Janssen Pharmaceutica N.V., priority 1974, dated 1976).

Columns and labels:
Test in all cases: Antifungal growth inhibition in Sabouraud's liquid medium
Type in all cases: cell-based
[1] = tested on: Trichophyton rubrum; conditions: Tr.r., tested at 100, 10, 1 μg/ml; for MIC: Trichophyton rubrum, 336 h, read-out: Concentrations in μg/ml for 100% Inhibition of Growth
Description: (§1) Tests for the control of fungal organisms were performed using Sabouraud's liquid medium (1 g. of neopeptone Difco and 2 g. of glucose Difco per 100 ml. distilled water) in test tubes, each containing 4.5 ml. of liquid medium, autoclaved at 120° C for 15 minutes. The imidazolium salts were prepared for testing by dissolving in 50% ethanol to a concentration of 20 mg./ml. and thereafter diluting with sterile distilled water to obtain a concentration of 10 mg./ml. Successive decimal dilutions were then made with sterile distilled water to prepare a series of test solutions. In carrying out the test, 0.5 ml. of one of the test solutions is added to 4.5 ml. of Sabouraud's liquid medium to obtain a test medium. In this manner, from appropriate test solution, test media containing 100 μg, 10 μg and 1 μg of imidazolium salt per milliliter of medium were obtained.
(§2) Control tubes were prepared by adding 0.5 ml. of sterile distilled water to 4.5 ml. of medium. Ethanol was also added to simulate the amount which would be present in the test media. Filamentous fungi were incubated at 25° C for two to three weeks. A square block of side 2 mm. was excised and inoculated into the liquid medium. A 3-day old culture on Sabouraud's liquid medium was used for yeasts. The inoculum was 0.05 ml. per tube. All cultures were incubated at 25° C for 14 days.

[2] = tested on: Cryptococcus neoformans; conditions: Cr.n., tested at 100, 10, 1 μg/ml; for MIC: Cryptococcus neoformans, 336 h, read-out: Concentrations in μg/ml for 100% Inhibition of Growth
Description: as §1, §2

[3] = tested on: Microsporum canis; conditions: M.c., tested at 100, 10, 1 μg/ml; for MIC: Microsporum canis, 336 h, read-out: Concentrations in μg/ml for 100% Inhibition of Growth
Description: as §1, §2

[4] = tested on: Ctenomyces mentagrophytes; conditions: Ct.m., tested at 100, 10, 1 μg/ml; for MIC: Trichophyton mentagrophytes, 336 h, read-out: Concentrations in μg/ml for 100% Inhibition of Growth
Description: as §1, §2

| Molecule | MIC [1] | MIC [2] | MIC [3] | MIC [4] | Concentrations in μg/ml for 100% Inhibition of Growth [1] | Concentrations in μg/ml for 100% Inhibition of Growth [2] | Concentrations in μg/ml for 100% Inhibition of Growth [3] | Concentrations in μg/ml for 100% Inhibition of Growth [4] |
| --- | --- | --- | --- | --- | --- | --- | --- | --- |
| Cc1cccc(C)c1N(C)C(=O)C[n+]1ccn(CC(OCc2ccc(Cl)cc2Cl)c2ccc(Cl)cc2Cl)c1 (stereo not drawn) | 1 µg/mL | 10 µg/mL | 10 µg/mL | 10 µg/mL | – | – | – | – |
| CC(C(=O)Nc1ccccc1Cl)[n+]1ccn(CC(OCc2ccc(Cl)cc2Cl)c2ccc(Cl)cc2Cl)c1 (stereo not drawn) | 1 µg/mL | 100 µg/mL | 10 µg/mL | 10 µg/mL | – | – | – | – |
| Cc1cccc(Cl)c1CNC(=O)C(C)[n+]1ccn(CC(OCc2ccc(Cl)cc2Cl)c2ccc(Cl)cc2Cl)c1 (stereo not drawn) | 1 µg/mL | 100 µg/mL | 1 µg/mL | 1 µg/mL | – | – | – | – |
| O=C(C[n+]1ccn(CC(OCc2ccc(Cl)cc2Cl)c2ccc(Cl)cc2Cl)c1)c1cccs1 (stereo not drawn) | 1 µg/mL | 10 µg/mL | 10 µg/mL | 1 µg/mL | – | – | – | – |
| O=C(C[n+]1ccn(CC(OCc2ccc(Cl)cc2Cl)c2ccc(Cl)cc2Cl)c1)c1ccc(Cl)s1 (stereo not drawn) | 1 µg/mL | 10 µg/mL | 1 µg/mL | 1 µg/mL | – | – | – | – |
| OC(C[n+]1ccn(CC(OCc2ccc(Cl)cc2Cl)c2ccc(Cl)cc2Cl)c1)c1ccc(Cl)cc1 (stereo not drawn) | 1 µg/mL | 10 µg/mL | 10 µg/mL | 1 µg/mL | – | – | – | – |
| 1-(β-butoxy2,4-dichlorophenethyl)-3-[p-chloro-a-(p-fluorophenyl)benzyl]imidazolium chloride | – | – | – | – | 10 µg/mL | 100 µg/mL | 10 µg/mL | 10 µg/mL |
| Cc1ccccc1NC(=O)C[n+]1ccn(CC(OCc2ccc(Cl)cc2)c2ccc(Cl)cc2Cl)c1 (stereo not drawn) [2,4(Cl)2C6H3/CH2C6H4pCl/CH2CONHoCH3, 1-[2,4-Dichloro-β-(p-chlorobenzyloxy)phenethyl]-3-(N-o-tolylcarbamoymethyl)imidazolium cholride] | 1 µg/mL | 10 µg/mL | 10 µg/mL | 1 µg/mL | – | – | – | – |
| C=CCOC(Cn1cc[n+](CC(=O)c2ccc(F)cc2)c1)c1ccc(Cl)cc1Cl (stereo not drawn) [2,4(Cl)2C6H3/CH2CHCH2/CH2COC6H4pF, 1-[β-(alloyloxy)-2,4-dichlorophenethyl]-3-(p-fluorophenacyl)imidazolium chloride] | 10 µg/mL | 100 µg/mL | 10 µg/mL | 10 µg/mL | – | – | – | – |
| OC(C[n+]1ccn(CC(OCc2ccc(Cl)cc2)c2ccc(Cl)cc2Cl)c1)c1ccc(Cl)cc1 (stereo not drawn) [2,4(Cl)2C6H3/drawing 65/CH2CHOHC6H4pCl] | 1 µg/mL | 100 µg/mL | 1 µg/mL | 1 µg/mL | – | – | – | – |
| O=C(C[n+]1ccn(CC(OCc2ccc(Cl)cc2)c2ccc(Cl)cc2Cl)c1)c1ccc(F)cc1 (stereo not drawn) [2,4(Cl)2C6H3/drawing 65/CH2COC6H4pF] | 1 µg/mL | 10 µg/mL | 1 µg/mL | 1 µg/mL | – | – | – | – |
| OC(C[n+]1ccn(CC(OCc2c(Cl)cccc2Cl)c2ccc(Cl)cc2Cl)c1)c1ccc(Cl)cc1 (stereo not drawn) [2,4(Cl)2C6H3/drawing 66/CH2CHOHC6H4pCl] | 1 µg/mL | 10 µg/mL | 10 µg/mL | 10 µg/mL | – | – | – | – |
| O=C(C[n+]1ccn(CC(OCc2c(Cl)cccc2Cl)c2ccc(Cl)cc2Cl)c1)c1ccc(F)cc1 (stereo not drawn) [2,4(Cl)2C6H3/drawing 66/CH2COC6H4pF] | 1 µg/mL | 10 µg/mL | 10 µg/mL | 10 µg/mL | – | – | – | – |
| CCCCOC(Cn1cc[n+](CC(=O)Nc2ccc(F)cc2)c1)c1ccc(Cl)cc1Cl (stereo not drawn) [2,4(Cl)2C6H3/nC4H9/CH2CONHC6H4pF, 1-(β-Butoxy-2,4-dichlorophenethyl)-3-[N-(p-fluorophenyl)carbamoylmethyl]imidazolium chloride] | 10 µg/mL | 100 µg/mL | 10 µg/mL | 10 µg/mL | – | – | – | – |
| O=C(CCn1cc[n+](CC(OCc2ccc(Cl)cc2Cl)c2ccc(Cl)cc2Cl)c1)c1ccc(Br)cc1.[Cl-] (stereo not drawn) [(CH2)2COC6H4pBr, 1-[2-(p-Bromobenzoyl)ethyl]-3-[2,4-dichloro-β-(2,4-dichlorobenzyloxy)phenethyl]imidazolium chloride] | 1 µg/mL | 1 µg/mL | 10 µg/mL | 1 µg/mL | – | – | – | – |
